Data reported in publication PMC4309848, “The role of the catecholic and the electrophilic moieties of caffeic acid in Nrf2/Keap1 pathway activation in ovarian carcinoma cell lines” (Redox Biology, 2014).

What was measured:
[1] = target: glutathione-S-transferase (GST, GSTP1); test: in vitro enzyme activity assay (GSH/CDNB conjugation, absorbance at […] nm); format: biochemical
[2] = target: glutathione reductase-1 (GSR, GSR1); test: in vitro enzyme activity assay (GSSG/NADPH, absorbance at […] nm); format: biochemical

## O=C(O)/C=C/c1ccc(O)c(O)c1 [CA, caffeic acid]
[1]
  IC50: 95 µM
[2]
  IC50: 70 µM
